Read-outs that look alike come from different tables or passages of the source. Starred links: 1 amine or outer side, 2 acyl side, 3 side chain; linkers in the order of their positions; H or OH if unused. Non-standard residues stand in square brackets, D forms with d. Residues, ends and D or L forms follow the SMILES beside them. Groups on a side chain read outwards from the residue. *: point of attachment. C18 diacid = O=C(O)CCCCCCCCCCCCCCCCC(=O)*; γGlu = O=C(O)[C@H](CCC(=O)[*:2])N[*:1]; NMeY = CN[C@@H](Cc1ccc(O)cc1)C(=O)O; AEEA = NCCOCCOCC(=O)O; Aib = CC(C)(N)C(=O)O
Key:
human GLP-1R = biological target: T1, human GLP-1R (Homo sapiens, UniProt P43220); assay: Human GLP1R agonist activity, intracellular cAMP accumulation; type: cell-based; conditions: HEK-293T cells overexpressing human GLP-1R, 1 hr, read-out: Human GLP1R cAMP EC50, HEK293T
T1 construct: HEK-293T cells overexpressing full-length human GLP-1R; FLAG (N); host or cells: HEK-293T
T1 sequence (P43220 24-463): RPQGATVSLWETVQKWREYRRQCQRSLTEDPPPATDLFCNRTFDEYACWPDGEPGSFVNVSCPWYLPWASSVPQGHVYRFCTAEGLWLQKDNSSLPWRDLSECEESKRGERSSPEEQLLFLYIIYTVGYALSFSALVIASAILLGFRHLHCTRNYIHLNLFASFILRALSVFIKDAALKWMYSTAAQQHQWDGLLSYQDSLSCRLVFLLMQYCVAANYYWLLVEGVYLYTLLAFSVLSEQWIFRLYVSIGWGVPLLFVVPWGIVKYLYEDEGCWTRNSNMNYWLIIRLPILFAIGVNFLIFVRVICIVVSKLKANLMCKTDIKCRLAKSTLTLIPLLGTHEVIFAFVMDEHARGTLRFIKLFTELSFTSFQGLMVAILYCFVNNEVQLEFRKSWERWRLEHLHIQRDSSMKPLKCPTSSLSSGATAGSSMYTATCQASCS
Method in brief: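 cAMP accumulation is measured by HTRF after a 1 hr, room-temperature, dark exposure of thawed cells (4×10^5 cells/mL in Krebs Ringer buffer) to compound. Activity is scaled between DMSO alone as 0% and 1 nm GLP-1 as 100%.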

C57BL/6J mice = assay: Oral glucose tolerance test (OGTT); type: in vivo; conditions: 3 nmol/kg s.c., 24 hours before glucose loading
Method in brief: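 Peptide or vehicle given s.c. at 0.1, 0.3, 3 or 10 nmol/kg (peptide-dependent), 24 h before oral 50% dextrose at 5 ml/kg unless stated otherwise. Blood glucose read at 0, 15, 30 and 60 min. % inhibition = (1−(AUC cpd−AUC naïve)/(AUC veh−AUC naïve))×100.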

female beagle dogs = assay: PYY-1119-induced vomiting in dogs; type: in vivo; conditions: 3 nmol/kg s.c., 72 hours post-dose (lower line)
Protocol: The GIPR agonist peptide compounds of the present disclosure or vehicle (0.09% [w/v] Tween 80/10% DMSO/PBS) were administered subcutaneously (sc) at 3-10 nmol/kg to female beagle dogs (10 months old), followed by sc injections with Y2R agonist ((4-imidazolecarbonyl-Ser-D-Hyp-Iva-Pya(4)-Cha-Leu(Me)-Asn-Lys-Aib-Thr-Arg-Gln-Arg-Cha-NH2), […]), […]) at 1 hour or specified hours in the table postdose. Emetic episodes were counted for 2 hours after administration (by blinded analysis).

physchem = assay: physchem
Method in brief: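 Solubility at pH 7.4 determined by stepwise addition of 200 mM phosphate buffer in 100 μL increments to 3 mg peptide, mixing briefly each time, until no insoluble material remained, then measured by liquid chromatography.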

Dogs = type: in vivo; conditions: 10 nmol/kg s.c.
Protocol: Dogs are transferred to an observation cage (700 mm W×700 mm D×700 mm H [W×D×H], without food) on 1 day before each apomorphine challenge. The dogs are weighed by using an electronic balance then test peptide compounds and vehicle will be administrated via the subcutaneous route. Apomorphine is challenged at 8 hr after the administration and emetic events will be monitored for 1 h by video recording. The second apomorphine challenge will be 72 hr after the administration and emetic events will be recorded by the same protocol. Emesis symptoms are continuously recorded using a video camera and stored on a blue ray disc. Observation of symptoms include retching (a rhythmic contraction of the abdomen) and vomiting (vomiting behavior, including the elimination of vomitus or similar behavior). Besides, the combination of retching and vomiting is defined as emesis, and the number of episodes, latency (time elapsed from morphine administration until the onset of the first emesis symptom), duration (time elapsed between the onset of the first and final episodes of emesis), and frequency (number of animals showing emesis/number of experimental animals) of each of these symptoms is calculated. The latency in cases where emesis symptoms are not noted is taken as the maximum value (1 h for apomorphine challenge) at the end of observation. When the duration of the emesis symptoms is less than 1 min, the duration is recorded, for convenience, as 1 min.

[1] = Dog plasma protein binding (PPB); type: in vitro ADME; conditions: pH 7.4; fraction unbound; dog serum; read-out: Dog PPB (FUplasma)
Method in brief: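 Fraction unbound (Fu,plasma) is given as a percentage. It was measured with the method and analysis of the human protein-binding protocol, but using dog serum in place of human serum.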

[2] = Pharmacokinetics in dog after IV and SC dosing; conditions: in vivo; for half-life: IV 3 nmol/kg, read-out: IV T½ (converted); for MRT last: SC 3 nmol/kg, read-out: SC MRT 0-last
Method in brief: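 Dogs were dosed IV or SC at 1 mL/kg with peptide at 3 nmol/mL in 10% DMSO/0.09% Polysorbate/PBS pH 7.4. K2-EDTA plasma was sampled to 336 h, and peptide was quantified by LCMS to derive half-life.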

male ferrets = type: in vivo
Protocol: 1. Effect of subcutaneously administered GIP receptor agonist peptide in morphine-induced acute emetic model.
To evaluate the antiemetic effect, the GIP receptor agonist peptides other than natural human GIP are subcutaneously administered into male ferrets 24 hrs before morphine administration. Up to 60 minutes after morphine administration, the condition of the ferrets is monitored to record the frequencies and time points of abdominal contraction motions, vomiting behaviors, licking with the tongue, and fidgety behavior occurring. GIP receptor agonist peptide compounds of the present disclosure dosed at 0.3-10 nmol/kg attenuated the morphine (0.6 mg/kg, s.c.)-induced emesis in the ferrets.
GIP receptor agonist peptides are dissolved with a vehicle (0.09 w/v % tween 80/10% DMSO/saline), respectively, to prepare test solutions. […] of the test solutions and the vehicle are subcutaneously administered to ferrets (4 in each group), respectively. At the time of each of 4 or 24 hours after administration, 0.6 mg/kg of morphine is subcutaneously administered.

[3] = Human plasma protein binding (PPB); type: in vitro ADME; conditions: for fraction unbound: both sexes, pH 7.4, human plasma, 1000 nmol/L peptide, ultracentrifugation, read-out: Human PPB (FUplasma); for free unbound peptide in human plasma (in words): judged for once per week (QW) dosing
Method in brief: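 Peptides spiked at 1000 nmol/L into pooled human K2-EDTA plasma adjusted to pH 7.4, incubated 30 min at 37 °C, then ultracentrifuged at ~450,000 g, 4 °C for 3 h. Fu derived from LC-MS/MS (MRM) peak area ratios, supernatant versus plasma.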

| Compound | EC50 (human GLP-1R) | Oral Glucose Tolerance Test Percent decrease in blood glucose AUC (%) over 60 mins (C57BL/6J mice) | Inhibition (%) of PYY-1119-induced emetic event (female beagle dogs) | solubility (physchem; pH 7.4) | solubility (physchem; pH 7.4, aqueous buffer) | % inhibition of emetic events at doses (nmol/kg) shown in dog apomorphine model (Dogs; after 8 hrs (upper)) | % inhibition of emetic events at doses (nmol/kg) shown in dog apomorphine model (Dogs; after 72 hours (lower)) | fraction unbound [1] | half-life [2] | MRT last [2] | % inhibition of emetic events at doses (nmol/kg) and timepoints shown in ferret morphine model (male ferrets; 24 hrs, 1 nmol/kg s.c.) | effect on morphine-induced emesis in ferrets (in words) (male ferrets; morphine 0.6 mg/kg s.c., peptides dosed at 0.3-10 nmol/kg s.c.) | fraction unbound [3] | free unbound peptide in human plasma (in words) [3] | solubility (physchem; pH 7.4, aqueous buffer, pH 7.4 Phosphate Buffer - Solubility, 200 mM Phosphate buffer pH 7.4) | solubility (physchem; pH 7.4, solubility in phosphate buffer at pH 7.4, 200 mM phosphate buffer pH 7.4) | % inhibition of emetic events at doses (nmol/kg) and timepoints shown in ferret morphine model (male ferrets; in vivo, sc, 24 h) |
| --- | --- | --- | --- | --- | --- | --- | --- | --- | --- | --- | --- | --- | --- | --- | --- | --- | --- |
| CC[C@H](C)[C@H](NC(=O)[C@H](Cc1ccccc1)NC(=O)[C@@H](NC(=O)CNC(=O)[C@H](CCC(=O)O)NC(=O)C(C)(C)NC(=O)[C@H](Cc1ccc(O)cc1)NC)[C@@H](C)O)C(=O)N[C@@H](CO)C(=O)N[C@@H](CC(=O)O)C(=O)N[C@@H](Cc1ccc(O)cc1)C(=O)N[C@@H](CO)C(=O)N[C@H](C(=O)NC(C)(C)C(=O)N[C@@H](CCCCNC(=O)CNC(=O)CNC(=O)CNC(=O)CNC(=O)CNC(=O)CCCCCCCCCCCCCCCCC(=O)O)C(=O)N[C@@H](CC(=O)O)C(=O)N[C@@H](CCCNC(=N)N)C(=O)NC(C)(C)C(=O)N[C@@H](C)C(=O)N[C@@H](CCC(N)=O)C(=O)NC(C)(C)C(=O)N[C@@H](CC(=O)O)C(=O)N[C@@H](Cc1ccccc1)C(=O)N[C@H](C(=O)N[C@@H](CCC(=O)O)C(=O)N[C@@H](Cc1c[nH]c2ccccc12)C(=O)N[C@@H](CC(C)C)C(=O)N[C@@H](CC(C)C)C(=O)N[C@@H](C)C(=O)N[C@@H](CCC(N)=O)C(=O)N[C@@H](CCCNC(=N)N)C(=O)NCC(=O)O)C(C)C)[C@@H](C)CC [Compound 108] | 41.7 nM | 65% (3 nmol/kg) | 96% (3 nmol/kg) | ≥ 15 mg/mL | ≥ 60 mg/mL | 50% (10 nmol/kg) | 54% (10 nmol/kg) |  |  |  |  |  |  |  |  |  |  |
| CC[C@H](C)[C@H](NC(=O)[C@H](CO)NC(=O)[C@H](Cc1ccc(O)cc1)NC(=O)[C@H](CC(=O)O)NC(=O)[C@H](CO)NC(=O)[C@@H](NC(=O)[C@H](Cc1ccccc1)NC(=O)[C@@H](NC(=O)CNC(=O)[C@H](CCC(=O)O)NC(=O)C(C)(C)NC(=O)[C@H](Cc1ccc(O)cc1)NC)[C@@H](C)O)[C@@H](C)CC)C(=O)N[C@@H](C)C(=O)N[C@@H](CCCCNC(=O)CNC(=O)CNC(=O)CNC(=O)CNC(=O)CNC(=O)CCCCCCCCCCCCCCCCC(=O)O)C(=O)N[C@@H](CC(=O)O)C(=O)N[C@@H](CCCNC(=N)N)C(=O)NC(C)(C)C(=O)N[C@@H](C)C(=O)N[C@@H](CCC(N)=O)C(=O)NC(C)(C)C(=O)N[C@@H](CC(=O)O)C(=O)N[C@@H](Cc1ccccc1)C(=O)N[C@H](C(=O)N[C@@H](CC(N)=O)C(=O)N[C@@H](Cc1c[nH]c2ccccc12)C(=O)N[C@@H](CC(C)C)C(=O)N[C@@H](CC(C)C)C(=O)N[C@@H](C)C(=O)N[C@@H](CCC(N)=O)C(=O)N[C@@H](CO)C(=O)N1CCC[C@H]1C(=O)NCC(=O)O)C(C)C [Compound 84, Me-Y-Aib-E-G-T-F-I-S-D-Y-S-I-A-Km-D-R-Aib-A-Q-Aib-D-F-V-N-W-L-L-A-Q-S-P-G-OH] | 58.9 nM | 72% (3 nmol/kg) |  | ≥ 15 mg/mL | ≥ 60 mg/mL |  |  | 0.0003 | 2.58 days | 82 h | 24 hrs: 65% (1 nmol/kg); | effective in completely inhibiting the frequency of emesis | 0.0009 | optimum free unbound peptide |  |  |  |
| CC[C@H](C)[C@H](NC(=O)[C@H](CCCNC(=N)N)NC(=O)[C@H](CC(=O)O)NC(=O)[C@H](CCCCNC(=O)CNC(=O)CNC(=O)CNC(=O)CNC(=O)CNC(=O)CCCCCCCCCCCCCCCCC(=O)O)NC(=O)[C@H](C)NC(=O)[C@@H](NC(=O)[C@H](CO)NC(=O)[C@H](Cc1ccc(O)cc1)NC(=O)[C@H](CC(=O)O)NC(=O)[C@H](CO)NC(=O)[C@@H](NC(=O)[C@H](Cc1ccccc1)NC(=O)[C@@H](NC(=O)CNC(=O)[C@H](CCC(=O)O)NC(=O)C(C)(C)NC(=O)[C@H](Cc1ccc(O)cc1)NC)[C@@H](C)O)[C@@H](C)CC)[C@@H](C)CC)C(=O)N[C@@H](C)C(=O)N[C@@H](CCC(N)=O)C(=O)N[C@@H](CCCNC(=N)N)C(=O)N[C@@H](CC(N)=O)C(=O)N[C@@H](Cc1ccccc1)C(=O)N[C@H](C(=O)N[C@@H](CCC(=O)O)C(=O)N[C@@H](Cc1c[nH]c2ccccc12)C(=O)N[C@@H](CC(C)C)C(=O)N[C@@H](CC(C)C)C(=O)N[C@@H](C)C(=O)N[C@@H](CCC(N)=O)C(=O)N[C@@H](CO)C(=O)N1CCC[C@H]1C(=O)N[C@@H](CO)C(=O)N[C@@H](CO)C(=O)NCC(=O)N[C@@H](C)C(=O)N1CCC[C@H]1C(=O)N1CCC[C@H]1C(=O)N1CCC[C@H]1C(=O)N[C@@H](CO)C(=O)O)C(C)C [Compound 179] |  | 58% (3 nmol/kg) | 45% (3 nmol/kg) |  |  |  |  |  |  |  |  |  |  |  | ≥ 30 mg/mL | ≥ 15 mg/mL |  |
| CC[C@H](C)[C@H](NC(=O)[C@H](Cc1ccccc1)NC(=O)[C@@H](NC(=O)CNC(=O)[C@H](CCC(=O)O)NC(=O)C(C)(C)NC(=O)[C@H](Cc1ccc(O)cc1)NC)[C@@H](C)O)C(=O)N[C@@H](CO)C(=O)N[C@@H](CC(=O)O)C(=O)N[C@@H](Cc1ccc(O)cc1)C(=O)N[C@@H](CO)C(=O)N[C@H](C(=O)NC(C)(C)C(=O)N[C@@H](CC(C)C)C(=O)N[C@@H](CC(=O)O)C(=O)N[C@@H](CCCNC(=N)N)C(=O)NC(C)(C)C(=O)N[C@@H](C)C(=O)N[C@@H](CCC(N)=O)C(=O)NC(C)(C)C(=O)N[C@@H](CCCCNC(=O)COCCOCCNC(=O)COCCOCCNC(=O)CC[C@H](NC(=O)CC[C@H](NC(=O)CCCCCCCCCCCCCCCCC(=O)O)C(=O)O)C(=O)O)C(=O)N[C@@H](Cc1ccccc1)C(=O)N[C@H](C(=O)N[C@@H](CC(N)=O)C(=O)N[C@@H](Cc1c[nH]c2ccccc12)C(=O)N[C@@H](CC(C)C)C(=O)N[C@@H](CC(C)C)C(=O)N[C@@H](C)C(=O)N[C@@H](CCC(N)=O)C(=O)N[C@@H](CCCNC(=N)N)C(=O)NCC(=O)O)C(C)C)[C@@H](C)CC [Compound 72, Me-Y-Aib-E-G-T-F-I-S-D-Y-S-I-Aib-L-D-R-Aib-A-Q-Aib-Km-F-V-N-W-L-L-A-Q-R-G-OH] (H-[NMeY][Aib]EGTFISDYSI[Aib]LDR[Aib]AQ[Aib]K([AEEA-AEEA-γGlu-γGlu-C18 diacid])FVNWLLAQRG-OH) |  |  |  | ≥ 15 mg/mL | ≥ 60 mg/mL |  |  | 0.0062 | 3.83 days | 125 h |  |  | 0.0036 | optimum free unbound peptide |  |  | 100% (3 nmol/kg); 100% |
